Data on 15 compounds can be found in ChEMBL document CHEMBL4725430, “Discovery of Zika Virus NS2B/NS3 Inhibitors That Prevent Mice from Life-Threatening Infection and Brain Damage” (ACS Med Chem Lett, 2020).

A short description of series [1]: Cytotoxicity against human HepG2 cells assessed as cell viability at 10 uM measured after 4 days by CellTiter-Glo luminescent cell viability assay relative to control. It is filed as cell-based. Particulars: time 4 day, read-out: Activity. (Cellular ATP, detected with luciferase, serves as a proxy for viable cell number.)
The test system of series [2] is Zika virus. In words: Antiviral activity against Zika virus 976 Uganda infected in human HepG2 cells assessed as protection against viral infection by measuring cell survival at 10 uM measured after 4 days by CellTiter-Glo luminescent cell viability assay relative to control. The settings on record: HepG2, 96 h, time 4 day. In kind it is functional.
A short description of series [3]: Cytotoxicity against human HepG2 cells assessed as cell viability at 100 uM measured after 4 days by CellTiter-Glo luminescent cell viability assay relative to control. Particulars: time 4 day, read-out: Activity. It is filed as cell-based.
Series [4] has as its system Zika virus. Description: Antiviral activity against Zika virus MR766 infected in human Huh-7 cells assessed as reduction in viral infection. In kind it is functional, organism-based. Particulars: MR766, Huh-7.
The test system of series [5] is Zika virus. Description: Antiviral activity against Zika virus 976 Uganda infected in human HepG2 cells assessed as inhibition of viral infection measured after 4 days by CellTiter-Glo luminescent cell viability assay. It is filed as functional, organism-based. Particulars: HepG2, 96 h.
Series [6] can be described thus: Non- competitive inhibition of N-terminal thrombin cleavage fused His-tagged Zika virus ARD41644 NS2B Arg95Ala mutant (49 to 95 residues)/NS3 Arg29Gly mutant (1 to 170 residues) protease expressed in Escherichia coli BL21pLysS using varying levels Bz-nKRR-MCA as substrate by Lineweaver-Burk double reciprocal plot analysis.
Series [7] can be described thus: Inhibition of N-terminal thrombin cleavage fused His-tagged Zika virus ARD41644 NS2B Arg95Ala mutant (49 to 95 residues)/NS3 Arg29Gly mutant (1 to 170 residues) protease expressed in Escherichia coli BL21pLysS using Bz-nKRR-MCA peptide as substrate by FRET assay.
Series [8] can be described thus: Binding affinity to N-terminal thrombin cleavage fused His-tagged Zika virus ARD41644 NS2B Arg95Ala mutant (49 to 95 residues)/NS3 Arg29Gly mutant (1 to 170 residues) protease expressed in Escherichia coli BL21pLysS by MST method.
A short description of series [9]: Inhibition of DENV2 NS2B-NS3 protease using Bz-nKRR-MCA as substrate by FRET assay. The arrangement: species or system dengue virus type 2.
Series [10] deals with Zika virus. In words: Antiviral activity against Zika virus infected in 6 days old suckling ICR mouse assessed as reduction in virus titer in brain at 1 mg/kg, ip administered at day 1, 3 and 5 post-infection. It is filed as functional, organism-based.
Series [11] concerns Zika virus. In words: Antiviral activity against Zika virus infected in 6 days old suckling ICR mouse assessed as reduction in monocyte infiltration in brain at 1 mg/kg, ip administered at day 1, 3 and 5 post-infection by immunohistochemistry analysis. It is filed as functional, organism-based.
Series [12] deals with Zika virus. In words: Antiviral activity against Zika virus infected in 6 days old suckling ICR mouse assessed as improvement in survival rate at 1 mg/kg, ip administered at day 1, 3 and 5 post-infection and monitored daily for 6 days post-infection. In kind it is functional, organism-based.
In series [13] the test system is Zika virus. In words: Antiviral activity against Zika virus infected in 6 days old suckling ICR mouse assessed as improvement in body weight at 1 mg/kg, ip administered at day 1, 3 and 5 post-infection and monitored daily for 6 days post-infection. It is filed as functional, organism-based.
For series [14], the system named is Zika virus. Description: Antiviral activity against Zika virus infected in 6 days old suckling ICR mouse assessed as improvement in clinical scores at 1 mg/kg, ip administered at day 1, 3 and 5 post-infection and monitored daily for 6 days post-infection. In kind it is functional, organism-based.
The subject of series [15] is Zika virus. In words: Antiviral activity against Zika virus MR766 infected in human Huh-7 cells assessed as reduction in viral NS2B protein synthesis incubated for 3 days by Western blot analysis. It is filed as functional, organism-based. Particulars: dose microM 1-20, time 3.0 day. (In general: Immunoblotting shows a protein as a band on a membrane.)
For the next series, the system named is Huh-7. Description: Cytotoxicity against human Huh-7 cells. It is filed as cell-based.
Series [16] concerns Zika virus. Description: Antiviral activity against Zika virus MR766 infected in human Huh-7 cells assessed as reduction in viral RNA synthesis incubated for 3 days by qRT-PCR analysis. In kind it is functional, organism-based.
Series [17] has as its system Zika virus. In words: Antiviral activity against Zika virus infected in 6 days old suckling ICR mouse assessed as reduction in brain damage at 1 mg/kg, ip administered at day 1, 3 and 5 post-infection by hematoxylin and eosin staining based analysis. It is filed as functional, organism-based.
Series [18] relates to Zika virus. Description: Antiviral activity against Zika virus infected in 6 days old suckling ICR mouse assessed as inhibition of viral replication in brain at 1 mg/kg, ip administered at day 1, 3 and 5 post-infection by immunohistochemical staining. It is filed as functional, organism-based.

pEC50, pIC50, pKd, pKi: −log10 of the molar value. Activity calls are given as the source filed them. The calls are words filed in the database; no cut-off is given here.

For `CCOC(=O)c1[nH]c2ccc(Br)cc2c1Cc1cc(OC)c(O)c(OC)c1`, in series [1], the viability at 96 h, 10 µM is 100%. Also, in the series with Zika virus [2], the survival at 10 µM worked out at 20%.

For the compound `CCOC(=O)c1[nH]c2ccc(OC)cc2c1Cc1cc(OC)c(O)c(OC)c1`, in [1], the viability at 96 h, 10 µM stood at 100%. Also, the survival at 10 µM in the series with Zika virus [2] was 28%.

With `COC(=O)c1[nH]c2ccc(Br)cc2c1C(=O)c1cc(OC)c(O)c(OC)c1`, the viability at 96 h, 10 µM in [1] amounted to 100%. For the same compound, the survival at 10 µM in the series with Zika virus [2] was determined as 22%.

On to `COC(=O)c1[nH]c2ccc(Cl)cc2c1Cc1cc(OC)c(O)c(OC)c1`, for which the viability at 96 h, 10 µM in [1] was found to be 100%. Also, the survival at 10 µM with Zika virus [2] amounted to 23%.

As for `COC(=O)c1[nH]c2ccc(Br)cc2c1Cc1cc(OC)c(O)c(OC)c1`, the viability at 96 h, 10 µM in [1] was 100%. Further, the survival at 10 µM with Zika virus [2] came to 2%.

Consider `CCOC(=O)c1[nH]c2ccc(OC)cc2c1C(=O)c1cc(OC)c(O)c(OC)c1`, for which, in series [1], the viability at 96 h, 10 µM worked out at 100%. Moreover, the survival at 10 µM with Zika virus [2] amounted to 47%.

For `COC(=O)c1[nH]c2ccc(OC)cc2c1C(=O)c1cc(OC)c(O)c(OC)c1`, the viability at 96 h, 10 µM in series [1] amounted to 100%. In the series with Zika virus [2], the survival at 10 µM stood at 49%.

For `NC(=O)c1ncn([C@@H]2O[C@H](CO)[C@@H](O)[C@H]2O)n1` [RIBAVIRIN], the viability at 96 h, 100 µM in series [3] came to 100%.

For `CCOC(=O)c1[nH]c2ccc(O)cc2c1C(=O)c1cc(OC)c(O)c(OC)c1`, the viability at 96 h, 10 µM in series [1] was 94%. Besides, in the series on Zika virus [2], the survival at 10 µM is 0%.

The pEC50 is the EC50 on a negative log10 scale, so that one unit is a factor of ten. What is called pIC50 is −log10 of the IC50, conventionally taken in molar units. As a reminder, the pKi is −log10 of the Ki, conventionally taken in molar units. A high value points to a low Ki. As usually defined, the pKd is −log10 of the Kd, conventionally taken in molar units. Low values mean a high Kd, high ones a low Kd. Turning to `CCOC(=O)c1[nH]c2ccc(Br)cc2c1C(=O)c1cc(OC)c(O)c(OC)c1`, in the series with Zika virus [4], the pEC50 is 4.79. Also, the results for the pIC50 (with Zika virus [5]; in series [7]) were 4.80 and 4.48, respectively. Moreover, in [6], the pKi is 4.32. In addition, the viability at 96 h, 10 µM in series [1] stood at 100%. Moreover, the survival at 10 µM with Zika virus [2] amounted to 66%. The compound further showed a pKd in series [8] of 3.52.

Regarding `COC(=O)c1[nH]c2ccc(Cl)cc2c1C(=O)c1cc(OC)c(O)c(OC)c1`, the pEC50 in the series with Zika virus [4] is 4.86. Moreover, the pIC50 in series [9] was 3.95; in the series with Zika virus [5], 4.86; in series [7], 3.80; in the series on Zika virus [16] (MR766, Huh-7, 72 h), 4.86. In addition, the result in the series with Zika virus [10], in the series on Zika virus [11], in the series with Zika virus [12], in the series with Zika virus [13], with Zika virus [14] and in the series with Zika virus [17] was Active. In addition, the outcome in the series with Zika virus [18] was Active. In series [6], the pKi was 3.55. In addition, the Activity entry in the series on Zika virus [15] was “Dose-dependent effect”; in the series on Huh-7, “Non-Toxic”. The viability at 96 h, 10 µM in series [1] was found to be 100%. In the series with Zika virus [16] (time 3.0 day), the inhibition result was “Dose-dependent effect”. Moreover, the survival at 10 µM in the series on Zika virus [2] came to 47%. Further, the pKd in series [8] is less than 3.00.

Take `COc1cc(C(=O)c2c(-c3ccccc3)[nH]c3ccc(Br)cc23)cc(OC)c1O`: the viability at 96 h, 10 µM in [1] was 100%. For the same compound, in the series with Zika virus [2], the survival at 10 µM amounted to 23%.

For the compound `CCOC(=O)c1[nH]c2ccccc2c1Cc1cc(OC)c(O)c(OC)c1`, the viability at 96 h, 10 µM in series [1] was 100%. The survival at 10 µM in the series on Zika virus [2] was determined as 0%.

On to `COC(=O)c1[nH]c2ccc(Cl)cc2c1Cc1cc(OC)cc(OC)c1`, for which, in series [7], the pIC50 was 3.11. In [1], the viability at 96 h, 10 µM was found to be 100%. The survival at 10 µM in the series with Zika virus [2] is 16%.

`CCOC(=O)c1[nH]c2ccccc2c1C(=O)c1cc(OC)c(O)c(OC)c1`: the viability at 96 h, 10 µM in [1] is 100%. Also, in the series with Zika virus [2], the survival at 10 µM came to 0%.
